Measurements reported in patent US4634692A, “Synthesis of 1α,25-dihydroxy-24R-fluorocholecalciferol and 1α,25-dihydroxy-24S-fluorocholecalciferol” (Hoffmann-La Roche Inc., priority 1984, dated 1987).
“And” between values parts separate entries of the source, which are not always exact repeats. Identical values can stand only once. “Also recorded” adds a separate entry of the source. Like-named read-outs stand apart in the source and are kept apart here.

Key:
[1] = system: EHDP-Induced Mineralization Block; assay: Prevention of EHDP-induced mineralization block in rats (tibial epiphyseal plate width); type: in vivo, rat (Charles River CD male); conditions: 10 days; for Mean tibial epiphyseal plate width: with EHDP
Experimental: Charles River CD male rats are treated for 10 consecutive days. Rats are 21 days of age at the start of treatment. Ethane-1-hydroxy-1,1-diphosphonate (EHDP) is given subcutaneously on each treatment day at a dose of 3 mg/0.2 ml/rat in distilled water. Test compounds are administered orally on each treatment day in propylene glycol (0.2 ml/rat). Rats are autopsied on the day after the last treatment day and tibias are processed by a modified von Kossa procedure based upon silver impregnation of bone salts. Epiphyseal plate widths are measured with a micrometer ocular using standard microscopic magnification (35×). Activity is based upon dose-dependent narrowing of the widened epiphyseal plate induced by EHDP. Ten rats are used in each treatment group. Positive (EHDP alone) and negative (vehicles alone) control groups of ten rats each are included in each experiment.

[2] = system: vitamin D-deficient chicks; assay: Anti-rachitogenic activity in chicks (tibia ash weight); type: in vivo, chick (White Leghorn cockerels); conditions: for Mean tibia ash weight ± S.E.: 21 days oral dosing, 9-10 chicks per group, vehicle 120.9 ± 8.3
Experimental: One-day-old White Leghorn cockerels are placed on a vitamin D-deficient diet which contains 1% calcium and 0.7% phosphorous and are housed under ultraviolet-free lighting (General Electric F40G0 gold fluorescent lights). Compounds are dissolved in propylene glycol and administered orally in a volume of 0.2 ml for 21 consecutive days to chicks which are one to two days of age at the start of treatment. Controls are treated with vehicle alone. Compounds are prepared in amber flasks and the solutions are flushed with argon and refrigerated after each dosing period. Chicks are autopsied on the day after the last treatment day. Blood is collected for determination of serum calcium and phosphorus and tibia dry weight and ash weight are determined. Usually, ten chicks are used for each treatment group and for the control group. The results of the 1α,25-dihydroxy-24R-fluorocholecalciferol anti-rachitogenic activity assay are shown in Table I along with comparative data showing the anti-rachiotogenic activity of 24,24-difluoro 1α,25-dihydroxycholecalciferol.

[3] = Pharmacokinetics in dogs, plasma half-life after intravenous administration; conditions: dog, in vivo, 0.0003 mg/kg
Experimental: The plasma level profiles of 1α,25-dihydroxy-24R-fluorocholecalciferol and 1α,25-dihydroxycholecalciferol are compared in the dog after a single intraveneous dose. Each compound is studied in four dogs with a two-week "washout" period between compounds. The compounds are administered intravenously as solutions (2.5 mg/ml) in propylene glycol at a dose level of 0.3 μg/kg. At selected time points 5 ml of heparinized blood are collected, placed in ice and centrifuged in the cold. Plasma is separated and frozen immediately.
Plasma concentrations are determined by procedures routinely employed for the measurements of circulating levels of 1α,25-dihydroxycholecalciferol.

[4] = system: intestinal calcium absorption; assay: Intestinal calcium absorption in vitamin D-deficient chicks (serum 45Ca); type: in vivo, chick (Leghorn cockerels)
Experimental: While Leghorn one-day-old cockerels are placed on a vitamin D-deficient diet and are housed under ultraviolet-free lighting for 21 days. Chicks are then used to determine the effects of test compounds on intestinal calcium absorption. A single oral dose of test compound dissolved in propylene glycol is administered. At various times after dosing, 2 uCi of ^45 Ca (chloride) is given orally, and serum radioactivity is measured 45 minutes after administration of the isotope. Ten chicks are used in each treatment and control group and vehicle-treated controls are included at each time period.

[5] = 2.5 picomoles/rat/day p.o., vehicles 447, EHDP alone 1502
[6] = 7.5 picomoles/rat/day p.o., vehicles 416, EHDP alone 1390
[7] = 25 picomoles/rat/day p.o., vehicles 435, EHDP alone 1684
[8] = 75 picomoles/rat/day p.o., vehicles 448, EHDP alone 1332
[9] = 250 picomoles/rat/day p.o., vehicles 428, EHDP alone 1385

half-life [3] [h] | SMILES | Mean tibial epiphyseal plate width [1, 5] [Micra] | Mean tibial epiphyseal plate width [1, 6] [Micra] | Mean tibial epiphyseal plate width [1, 7] [Micra] | Mean tibial epiphyseal plate width [1, 8] [Micra] | Mean tibial epiphyseal plate width [1, 9] [Micra] | Prevention of EHDP-induced mineralization block (in words) ([1]; oral, rats) | Mean tibia ash weight ± S.E. ([2]; 3 ng/chick/day) [mg] | Mean tibia ash weight ± S.E. ([2]; 10 ng/chick/day) [mg] | Mean tibia ash weight ± S.E. ([2]; 30 ng/chick/day) [mg] | Anti-rachitogenic activity (in words) ([2]; oral, 21 consecutive days) | Serum 45Ca ([4]; 24 hr after single oral dose, vehicle 408 ± 30, *** statistically significant) [CPM/0.2 ML] | Serum 45Ca ([4]; 48 hr after single oral dose, vehicle 439 ± 30, not statistically significant) [CPM/0.2 ML] | Serum 45Ca ([4]; 72 hr after single oral dose, vehicle 398 ± 31, not statistically significant) [CPM/0.2 ML] | Duration of activity in stimulation of intestinal calcium absorption versus 1α,25-dihydroxycholecalciferol (in words) ([4]; single oral 100 nanogram dose) | Mean tibial epiphyseal plate width, EHDP alone (positive control) ([1]; EHDP 3 mg/0.2 ml/rat s.c., control groups of the 2.5, 7.5, 25, 75, 250 pmol) | half-life ([3]; 0.3 mcg/kg, i.v., dogs, read-out: Plasma half-life (converted)) [h]
14.4 | C=C1/C(=C\C=C2/CCC[C@]3(C)[C@@H]([C@H](C)CC[C@@H](F)C(C)(C)O)CC[C@@H]23)C[C@@H](O)C[C@@H]1O [[1α,3β,5Z,7E,24R]-24-fluoro-9,10-secocholesta-5,7,10(19)-trien-1,3,25-triol] | 1302 | 1031 | 1040 | 864 | 783 | has shown activity in the test for the prevention of EHDP-Induced Mineralization Block in rats; also recorded: narrows the widening of the epiphyseal plate induced by EHDP | 293.3 ± 4.8 | 330.4 ± 7.7 | 337.9 ± 10.6 | has shown activity in the anti-rachitogenic test in chicks; also recorded: possesses potent anti-rachitogenic activity | 793 ± 73 | 520 ± 38 | 372 ± 39 | comparable to that of 1α,25-dihydroxycholecalciferol |  | 
 | CC(O)(P(=O)(O)O)P(=O)(O)O [EHDP, Ethane-1-hydroxy-1,1-diphosphonate] |  |  |  |  |  |  |  |  |  |  |  |  |  |  | 1502 Micra and 1390 Micra and 1684 Micra and 1332 Micra and 1385 Micra | 
 | C=C1/C(=C\C=C2/CCC[C@]3(C)[C@@H]([C@H](C)CCCC(C)(C)O)CC[C@@H]23)C[C@@H](O)C[C@@H]1O [1α,25-dihydroxycholecalciferol] | 1365 | 1240 | 1103 | 922 | 839 |  |  |  |  |  |  |  |  |  |  | 3.6
 | C=C1/C(=C\C=C2/CCC[C@]3(C)[C@@H]([C@H](C)CCC(F)(F)C(C)(C)O)CC[C@@H]23)C[C@@H](O)C[C@@H]1O [24,24-difluoro 1α,25-dihydroxycholecalciferol, reference compound] |  |  |  |  |  |  | 192.2 ± 6.2 | 258.6 ± 10.0 | 229.8 ± 14.2 |  |  |  |  |  |  | 
